Experimental data published in US20240252456A1, “ORAL COMPOSITION, SKIN COSMETIC AND HAIR COSMETIC” (MARUZEN PHARMACEUTICALS CO., LTD., priority 2021, published 2024).

Assays:
CLDN4 mRNA = test: Claudin-4 (CLDN4) mRNA expression promotive action test; format: cell-based, human; conditions: 100 μmol/L; NHEK, 24 hours, corrected with GAPDH
Protocol: Normal human neonatal epidermal keratinocytes (NHEK) were precultured using normal human epidermal keratinocyte growth medium (KGM), and the cells were collected by a trypsin treatment. The collected cells were diluted with KGM to a cell density of 15×10^4 cells/mL, then seeded with 2 mL portions in a 6-well plate (30×10^4 cells/well), and cultured overnight under conditions of 37° C. and 5% CO2. After culturing, the medium was replaced with normal human epidermal keratinocyte basal medium (KBM, the above KGM without addition of growth additives (hEGF, BPE, insulin, antibacterial agents, hydrocortisone)), and culturing was further performed for 24 hours.
After culturing for 24 hours, the medium was removed, and 2 mL of the test sample (Sample 1, see Table 20 below for final concentrations) dissolved in KBM was added to each well, and culturing was performed under conditions of 37° C. and 5% CO2 for 24 hours. As a control, culturing was performed in the same manner using KBM to which no sample was added. After culturing, the medium was removed, total RNA was extracted using ISOGEN II (available from NIPPON GENE CO., LTD.), each RNA amount was measured using a spectrophotometer, and the total RNA was prepared so as to be 150 ng/μL.
For CLDN4 and GAPDH as an internal standard, the expression levels of mRNA were measured using the above total RNA as a template. […]

[1] = tested on: cyclic AMP phosphodiesterase; test: Cyclic AMP phosphodiesterase activity inhibitory action test; format: biochemical
Protocol: To 0.2 mL of 50 mmol/L Tris-HCl buffer solution (pH 7.5) containing 5 mmol/L magnesium chloride, 0.1 mL of 2.5 mg/mL bovine serum albumin solution, 0.1 mL of 0.1 mg/mL cyclic AMP phosphodiesterase solution, and 0.05 mL of the test sample solution (Sample 1, see Table 2 below for final concentration) were added, and the mixture was statically placed at 37° C. for 5 minutes. Then, 0.05 mL of 0.5 mg/mL cyclic AMP solution was added, and the mixture was reacted at 37° C. for 60 minutes. After the reaction was completed, the reaction was stopped by boiling in a boiling water bath for 3 minutes, and then centrifugal separation was applied (2260×g, 10 minutes, 4° C.). Cyclic AMP, a reaction substrate in the supernatant, was analyzed under the following high-performance liquid chromatography conditions. In addition, as a control, the same operation was performed by adding only the solvent to which no sample was added.
• Product name: Chromatocorder 12 (available from SYSTEM INSTRUMENTS) • Stationary phase: Wakosil C18-ODS 5 μm (available from FUJIFILM Wako Pure Chemical Corporation) • Column length: 250 mm • Mobile phase: 1 mmol/L TBAP in 25 mmol/L KH2PO4: CH3CN=90:10 • Mobile phase flow rate: 1.0 mL/min • Detection: 260 nm
Then, a peak area (A) of a cyclic AMP standard product, a peak area (B1) of the supernatant reaction solution of the cyclic AMP standard product and the cyclic AMP phosphodiesterase when no sample was added, and a peak area (B2) of the supernatant reaction solution of the cyclic AMP standard product and the cyclic AMP phosphodiesterase when the test sample was added were obtained. From the obtained results, a decomposition rate (C) of the cyclic AMP standard product when no sample was added and a decomposition rate (D) of the cyclic AMP standard product when the test sample was added were calculated using the following equations.
After that, the cyclic AMP phosphodiesterase activity inhibition rate (%) was calculated from the following equation based on each decomposition rate (C, D) calculated from the above equations.

[2] = tested on: Mouse macrophage cells (RAW264.7); test: Prostaglandin E2 (PGE2) production suppressive action test in mouse macrophages; format: cell-based; conditions: RAW264.7, LPS 1 μg/mL, 16 hours
Protocol: Mouse macrophage cells (RAW264.7) were cultured using Dulbecco's modified Eagle's medium (DMEM) containing 10% FBS, and then the cells were collected using a cell scraper. The collected cells were diluted with DMEM containing 10% FBS to a concentration of 2.0×10^5 cells/mL, then seeded with 100 μL per well in a 96-well plate, and cultured for 18 hours.
After the culturing was completed, the medium was replaced with a medium containing 500 μmol/L aspirin and cultured for 4 hours in order to acetylate and inactivate the already existing COX-1 and the small amount of COX-2 expressed. After that, the cells were washed three times with PBS(−) buffer solution, 100 μL of the test sample (Sample 1, see Table 29 below for final concentration) dissolved in DMEM containing DMSO at a final concentration of 0.5% and 10% FBS was added to each well, then 100 μL of lipopolysaccharide (LPS) (available from DIFCO, E. coli 0111; B4) dissolved at a final concentration of 1 μg/mL in DMEM containing 10% FBS, and the cells were cultured for 16 hours. As a control, culturing was performed in the same manner using DMEM containing DMSO at a final concentration of 0.5% and 10% FBS to which no sample was added. After the culturing was completed, the amount of prostaglandin E2 in the culture supernatant of each well was determined using PGE2 EIA Kit (available from Cayman Chemical). From the obtained results, the PGE2 production suppression rate (%) was calculated using the following equation.
Terms in the equation represent the following respective ones. • A: PGE2 amount with test sample addition and with LPS stimulation • B: PGE2 amount without sample addition and with LPS stimulation • C: PGE2 amount without sample addition and without LPS stimulation

Which “CLDN4 mRNA expression promotion rate” value (CLDN4 mRNA) does the source give for `O=C(O)CCc1ccc(O)c(O)c1` [Sample 1, 3,4-Dihydroxyhydrocinnamic acid] here?
Its value is 489.7%.

And the “cAMP phosphodiesterase activity inhibition rate” value ([1]; 500 μmol/L)?
The value was 42.0%.

What about the “cAMP phosphodiesterase activity inhibition rate” value ([1]; 1000 μmol/L) of the same compound?
The value was 46.8%.

And the “cAMP phosphodiesterase activity inhibition rate” value ([1]; 2000 μmol/L)?
Its value is 55.3%.

What about the “PGE2 production suppression rate” value ([2]; 31.25 μmol/L) of the same compound?
The value was 17.9%.

And the “PGE2 production suppression rate” value ([2]; 125 μmol/L)?
Its value is 17.7%.

What about the “PGE2 production suppression rate” value ([2]; 500 μmol/L) of the same compound?
Its value is 41.3%.
